Experimental data reported in EP4810052A2, “HCRHR2 SELECTIVE POLYPEPTIDES” (Gubra A/S, priority 2023, dated 2026).
Starred links: 1 amine or outer side, 2 acyl side, 3 side chain; linkers in the order of their positions; H or OH if unused. Non-standard residues stand in square brackets, D forms with d. Residues, ends and D or L forms follow the SMILES beside them. Groups on a side chain read outwards from the residue. *: point of attachment. C20 diacid = O=C(O)CCCCCCCCCCCCCCCCCCC(=O)*; γGlu = O=C(O)[C@H](CCC(=O)[*:2])N[*:1]; NMeI = CC[C@H](C)[C@H](NC)C(=O)O; AEEA = NCCOCCOCC(=O)O

Legend:
[1] = pH 7.5
[2] = Chemical stability of purified peptides (RP-UHPLC main peak purity loss); type: physicochemical; conditions: pH 7.5, 40°C; for Chemical stability at pH 7.5 after 14 days at 40°C (% degradation): first value of cell
Description: Chemical stability was tested at a concentration of approximately of 1.0 mg/ml peptide in the following vehicles: 50 mM phosphate buffer pH 7.5. Dissolved samples were incubated for at least 2 h at room temperature on a rocking table. The main peak purity at time zero (T0) was determined using reversed phase chromatography. The samples were incubated at 40°C for 14 days (T14) and 28 days (T28). The samples were analyzed with reversed phase chromatography and size exclusion chromatography.
Reversed Phase chromatography was performed on a Thermo Dionex Ultimate UHPLC system with UV detection at 215 nm) and equipped with a Kinetex column (1.7 µm, C8, 100 Å, 150 x 2.1 mm (00F-4499-AN)). Analysis was performed by gradient elution with buffer A (0.1% TFA in 95:5 H2O:acetonitrile) and buffer B (0.1% TFA in 5:95 H2O: acetonitrile) at a column temperature of 50 °C (gradient used 25-55%B over 40 min. Flowrate was 0.5 mL/min. The main peak purity was determined from the integrated chromatogram as the area under the main peak relative to the total peak area. The purity loss was calculated as the difference between the T0 and T14 time point and/or as the difference between the T0 and T28 time point.
The chemical stability of selected peptides was evaluated at varying pH's at 40° C over 28 days. Samples were prepared and analysed as described in procedure with the addition of pH adjusting samples to the targets indicated below. As a comparator,r commercially available semaglutide drug product (Ozempic®, Novo Nordisk) was included in the sample set.

hCRHR2 = target: T1, hCRHR2 (Homo sapiens, UniProt Q13324); test: HTRF cAMP assay, determination of hCRHR2 potency (peptide libraries 5 conc., purified peptides 11 conc.); type: cell-based; conditions: for Selectivity ratio (hCRHR1/ hCRHR2): hCRHR1-EC50/hCRHR2-EC50; for EC50: purified peptides, CHO-K1 cells stably expressing hCRHR2, cAMP HTRF, read-out: hCRHR2 EC50
T1 sequence (Q13324 1-411): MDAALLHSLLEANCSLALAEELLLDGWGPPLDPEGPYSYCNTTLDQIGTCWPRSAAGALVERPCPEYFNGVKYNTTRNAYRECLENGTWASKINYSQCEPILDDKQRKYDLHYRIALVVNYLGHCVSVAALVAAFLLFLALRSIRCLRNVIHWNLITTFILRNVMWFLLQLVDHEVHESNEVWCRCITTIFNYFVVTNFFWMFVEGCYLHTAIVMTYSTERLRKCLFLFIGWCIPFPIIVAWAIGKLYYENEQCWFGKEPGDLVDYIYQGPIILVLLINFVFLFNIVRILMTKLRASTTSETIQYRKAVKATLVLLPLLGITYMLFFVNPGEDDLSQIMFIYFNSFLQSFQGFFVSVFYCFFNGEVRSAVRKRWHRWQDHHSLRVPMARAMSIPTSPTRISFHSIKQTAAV
Procedure, shortened: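 CHO-K1 cells stably expressing human CRHR2, thawed from frozen stocks just before use and run in suspension; cAMP measured by competitive HTRF immunoassay (cryptate anti-cAMP, d2-cAMP). Agonist peptides tested at 5 (libraries) or 11 (purified) concentrations; EC50 from sigmoid variable-slope nonlinear regression.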

hCRHR1 = target: T2, hCRHR1 (Homo sapiens, UniProt P34998); test: HTRF cAMP assay, determination of hCRHR1 potency (peptide libraries 5 conc., purified peptides 11 conc.); type: cell-based; conditions: purified peptides; CHO-K1 cells stably expressing hCRHR1, cAMP HTRF; read-out: hCRHR1 EC50
T2 sequence (P34998 24-415): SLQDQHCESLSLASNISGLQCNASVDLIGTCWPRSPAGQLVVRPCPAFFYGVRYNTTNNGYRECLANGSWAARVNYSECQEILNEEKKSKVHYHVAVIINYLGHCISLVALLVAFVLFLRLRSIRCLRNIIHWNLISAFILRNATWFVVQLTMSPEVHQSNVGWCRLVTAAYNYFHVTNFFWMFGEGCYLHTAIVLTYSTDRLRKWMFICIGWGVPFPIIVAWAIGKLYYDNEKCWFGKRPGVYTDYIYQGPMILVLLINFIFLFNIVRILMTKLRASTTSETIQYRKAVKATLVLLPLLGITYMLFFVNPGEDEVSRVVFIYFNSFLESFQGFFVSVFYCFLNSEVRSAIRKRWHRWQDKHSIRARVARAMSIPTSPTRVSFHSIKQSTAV
Procedure, shortened: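 CHO-K1 cells stably expressing human CRHR1, thawed from frozen stocks just before use, were stimulated in suspension with agonist peptides. cAMP was measured by HTRF competitive immunoassay (cryptate anti-cAMP antibody vs d2-cAMP).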

[3] = Thioflavin T fibril formation assay of purified peptides; type: physicochemical; conditions: pH 7.5, ThT assay
Procedure, shortened: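 Compounds at 200 µM in 50 mM phosphate buffer at the stated pH values, or at 200 µM in semaglutide drug product adjusted to pH 7.4, with 4 µM ThT final. Fibrillation followed as ThT fluorescence (ex 450/em 480 nm) over 96 h at 40°C, with 5 min shaking at 700 rpm alternating with 5 min rest; triplicates.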

SMILES | Solubility pH 7.5, target conc. =10 mg/mL (measured mg/mL) [1] [mg/mL] | Chemical stability at pH 7.5 after 14 days at 40°C (% degradation) [2] | Selectivity ratio (hCRHR1/ hCRHR2) (hCRHR2) | EC50 (hCRHR2) [nM] | EC50 (hCRHR1) [nM] | Fibrillation (pH 7.5) [3] | Chemical stability at pH 7.5 after 28 days at 40°C (% degradation) ([2]; 28 days, second value of cell) [%]
CC[C@H](C)[C@H](NC)C(=O)N[C@H](C(=O)N[C@@H](CC(C)C)C(=O)N[C@@H](CO)C(=O)N[C@@H](CC(C)C)C(=O)N[C@@H](CC(=O)O)C(=O)N[C@H](C(=O)N1CCC[C@H]1C(=O)N[C@H](C(=O)NCC(=O)N[C@@H](CC(C)C)C(=O)N[C@@H](CC(C)C)C(=O)N[C@@H](CCC(N)=O)C(=O)N[C@H](C(=O)N[C@@H](CC(C)C)C(=O)N[C@@H](CC(C)C)C(=O)N[C@@H](CCC(=O)O)C(=O)N[C@@H](CCC(N)=O)C(=O)N[C@@H](C)C(=O)N[C@@H](CCCNC(=N)N)C(=O)N[C@@H](C)C(=O)N[C@@H](CCCNC(=N)N)C(=O)N[C@@H](C)C(=O)N[C@@H](C)C(=O)N[C@@H](CCCNC(=N)N)C(=O)N[C@@H](CCC(=O)O)C(=O)N[C@@H](CCC(N)=O)C(=O)N[C@@H](C)C(=O)N[C@@H](CCCCNC(=O)COCCOCCNC(=O)COCCOCCNC(=O)CC[C@H](NC(=O)CC[C@H](NC(=O)CCCCCCCCCCCCCCCCCCC(=O)O)C(=O)O)C(=O)O)C(=O)N[C@@H](CCC(=O)O)C(=O)N[C@@H](CC(N)=O)C(=O)N[C@@H](C)C(=O)N[C@@H](CCC(=O)O)C(=O)N[C@H](C(=O)N[C@@H](CC(C)C)C(=O)N[C@@H](C)C(=O)N[C@@H](CCC(=O)O)C(=O)N[C@H](C(N)=O)C(C)C)[C@@H](C)CC)[C@@H](C)CC)[C@@H](C)CC)C(C)C)C(C)C [SEQ ID NO: 18] (H-[NMeI]VLSLDVPIGLLQILLEQARARAAREQAK([AEEA-AEEA-γGlu-γGlu-C20 diacid])ENAEILAEV-NH2) | 11 | -2.2 / ND % | >3571 | 1.4 | > 5000 | No | –
CC[C@H](C)[C@H](N)C(=O)N[C@H](C(=O)N[C@@H](CC(C)C)C(=O)N[C@@H](CO)C(=O)N[C@@H](CC(C)C)C(=O)N[C@@H](CC(=O)O)C(=O)N[C@H](C(=O)N1CCC[C@H]1C(=O)N[C@H](C(=O)NCC(=O)N[C@@H](CC(C)C)C(=O)N[C@@H](CC(C)C)C(=O)N[C@@H](CCC(N)=O)C(=O)N[C@H](C(=O)N[C@@H](CC(C)C)C(=O)N[C@@H](CC(C)C)C(=O)N[C@@H](CCC(=O)O)C(=O)N[C@@H](CCC(N)=O)C(=O)N[C@@H](C)C(=O)N[C@@H](CCCNC(=N)N)C(=O)N[C@@H](C)C(=O)N[C@@H](CCCNC(=N)N)C(=O)N[C@@H](C)C(=O)N[C@@H](C)C(=O)N[C@@H](CCCNC(=N)N)C(=O)N[C@@H](CCC(=O)O)C(=O)N[C@@H](CCC(N)=O)C(=O)N[C@@H](C)C(=O)N[C@@H](CCCCNC(=O)COCCOCCNC(=O)COCCOCCNC(=O)CC[C@H](NC(=O)CC[C@H](NC(=O)CCCCCCCCCCCCCCCCCCC(=O)O)C(=O)O)C(=O)O)C(=O)N[C@H](C(=O)N[C@@H](CC(N)=O)C(=O)N[C@H](C(=O)N[C@@H](CCC(=O)O)C(=O)N[C@H](C(=O)N[C@@H](CC(C)C)C(=O)N[C@@H](C)C(=O)N[C@@H](CCC(=O)O)C(=O)N[C@H](C(N)=O)C(C)C)[C@@H](C)CC)[C@@H](C)CC)[C@@H](C)O)[C@@H](C)CC)[C@@H](C)CC)C(C)C)C(C)C [SEQ ID NO: 13] (H-IVLSLDVPIGLLQILLEQARARAAREQAK([AEEA-AEEA-γGlu-γGlu-C20 diacid])TNIEILAEV-NH2) | 8.9 | -0.3% | >926 | 5.4 | > 5000 | No | -1.6
